Like-named read-outs stand apart in the source and are kept apart here.
Tests used:
UGT1A6 = molecular target: T1, UGT1A6 (Homo sapiens, UniProt P19224); assay: Enzyme inhibition assay, UGT1A6; assay type: in vitro ADME; conditions: Recombinant UGT1A6; 4-methylumbelliferone O-glucuronidation
T1 sequence (P19224 27-532): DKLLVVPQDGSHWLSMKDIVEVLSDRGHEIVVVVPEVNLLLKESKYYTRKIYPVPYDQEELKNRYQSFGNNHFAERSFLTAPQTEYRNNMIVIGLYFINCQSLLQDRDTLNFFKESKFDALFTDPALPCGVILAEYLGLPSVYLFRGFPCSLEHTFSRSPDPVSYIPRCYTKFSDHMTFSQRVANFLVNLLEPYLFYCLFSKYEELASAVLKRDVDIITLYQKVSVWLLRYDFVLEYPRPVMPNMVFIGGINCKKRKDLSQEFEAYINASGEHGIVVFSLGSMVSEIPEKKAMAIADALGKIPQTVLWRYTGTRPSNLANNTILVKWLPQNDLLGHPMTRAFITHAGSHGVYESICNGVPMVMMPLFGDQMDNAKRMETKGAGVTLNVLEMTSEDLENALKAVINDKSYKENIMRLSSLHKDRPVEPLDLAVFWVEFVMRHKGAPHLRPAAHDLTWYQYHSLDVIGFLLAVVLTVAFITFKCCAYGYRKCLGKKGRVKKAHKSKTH

UGT1A1 = molecular target: T2, UGT1A1 (Homo sapiens, UniProt P22309); assay: Enzyme inhibition assay, UGT1A1; assay type: in vitro ADME; conditions: for IC50: HLM, UGT1A1 SN38 glucuronidation
T2 construct: from tissue
T2 sequence (P22309 26-533): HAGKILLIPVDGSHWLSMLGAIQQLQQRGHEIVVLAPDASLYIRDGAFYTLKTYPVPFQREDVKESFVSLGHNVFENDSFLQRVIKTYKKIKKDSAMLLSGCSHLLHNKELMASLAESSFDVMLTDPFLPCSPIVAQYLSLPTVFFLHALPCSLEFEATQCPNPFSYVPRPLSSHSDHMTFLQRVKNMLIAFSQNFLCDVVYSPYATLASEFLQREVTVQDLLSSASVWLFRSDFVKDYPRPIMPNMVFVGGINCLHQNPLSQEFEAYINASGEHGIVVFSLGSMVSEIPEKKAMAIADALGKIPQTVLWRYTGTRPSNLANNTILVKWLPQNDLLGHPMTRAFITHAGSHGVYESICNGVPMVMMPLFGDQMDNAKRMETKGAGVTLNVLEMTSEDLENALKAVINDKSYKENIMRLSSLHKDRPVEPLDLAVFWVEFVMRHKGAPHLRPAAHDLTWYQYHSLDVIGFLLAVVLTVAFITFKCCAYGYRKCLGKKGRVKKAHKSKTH

[1] = women, cited from earlier work; for Cmax: plasma, ref IPM 028
UGT1A8 = molecular target: T3, UGT1A8 (Homo sapiens, UniProt Q9HAW9); assay: Enzyme inhibition assay, UGT1A8
T3 sequence (Q9HAW9 26-530): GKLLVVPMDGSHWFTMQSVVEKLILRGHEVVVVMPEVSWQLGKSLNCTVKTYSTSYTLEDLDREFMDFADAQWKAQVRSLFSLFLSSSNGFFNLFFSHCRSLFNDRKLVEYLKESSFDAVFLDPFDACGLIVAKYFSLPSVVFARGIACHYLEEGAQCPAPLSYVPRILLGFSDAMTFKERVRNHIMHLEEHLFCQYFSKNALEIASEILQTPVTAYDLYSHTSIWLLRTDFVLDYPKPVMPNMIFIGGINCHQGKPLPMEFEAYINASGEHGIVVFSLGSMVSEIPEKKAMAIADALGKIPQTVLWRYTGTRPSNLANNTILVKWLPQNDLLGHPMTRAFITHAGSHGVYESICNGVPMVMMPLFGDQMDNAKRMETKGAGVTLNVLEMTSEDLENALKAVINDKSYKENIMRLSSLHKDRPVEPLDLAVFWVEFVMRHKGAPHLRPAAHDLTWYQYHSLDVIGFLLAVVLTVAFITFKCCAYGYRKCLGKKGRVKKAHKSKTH

CYP1A2 = molecular target: T4, CYP1A2 (Homo sapiens, UniProt P05177); assay: Enzyme inhibition assay, CYP1A2
T4 sequence (P05177 1-516): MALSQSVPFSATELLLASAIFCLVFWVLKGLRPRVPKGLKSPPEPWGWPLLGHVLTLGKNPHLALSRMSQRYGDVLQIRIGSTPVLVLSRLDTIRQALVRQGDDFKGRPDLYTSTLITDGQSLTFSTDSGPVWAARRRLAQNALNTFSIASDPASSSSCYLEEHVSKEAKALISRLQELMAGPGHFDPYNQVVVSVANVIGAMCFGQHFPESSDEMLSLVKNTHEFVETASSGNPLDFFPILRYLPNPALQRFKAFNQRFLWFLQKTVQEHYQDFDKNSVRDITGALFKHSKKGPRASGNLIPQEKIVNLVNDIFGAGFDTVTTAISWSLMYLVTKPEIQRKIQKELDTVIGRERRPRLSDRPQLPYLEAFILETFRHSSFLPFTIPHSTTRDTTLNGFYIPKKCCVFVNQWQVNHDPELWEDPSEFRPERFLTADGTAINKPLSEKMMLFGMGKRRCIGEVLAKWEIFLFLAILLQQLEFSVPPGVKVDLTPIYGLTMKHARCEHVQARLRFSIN

UGT1A4 = molecular target: T5, UGT1A4 (Homo sapiens, UniProt P22310); assay: Enzyme inhibition assay, UGT1A4
T5 sequence (P22310 29-534): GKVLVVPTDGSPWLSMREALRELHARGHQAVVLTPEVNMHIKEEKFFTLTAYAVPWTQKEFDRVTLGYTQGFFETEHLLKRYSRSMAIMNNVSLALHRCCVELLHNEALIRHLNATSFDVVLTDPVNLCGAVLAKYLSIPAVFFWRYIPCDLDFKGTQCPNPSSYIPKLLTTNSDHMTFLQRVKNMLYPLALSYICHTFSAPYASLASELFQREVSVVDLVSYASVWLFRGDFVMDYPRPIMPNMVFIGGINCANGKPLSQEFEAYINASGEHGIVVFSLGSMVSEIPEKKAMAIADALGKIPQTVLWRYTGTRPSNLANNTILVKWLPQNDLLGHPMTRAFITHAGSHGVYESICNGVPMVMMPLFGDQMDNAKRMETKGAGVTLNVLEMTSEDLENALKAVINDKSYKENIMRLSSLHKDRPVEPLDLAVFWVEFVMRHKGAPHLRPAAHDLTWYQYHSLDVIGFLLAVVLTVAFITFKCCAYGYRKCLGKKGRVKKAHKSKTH

Structure (SMILES)	IC50 (UGT1A6) [µM]	IC50 (UGT1A1; read-out: IC50) [µM]	increase in systemic exposure to DPV ([1]; concomitant use of DPV ring and MIC vaginal capsule compared to DPV ring alone) [%]	Cmax ([1]; after DPV ring administration alone) [ng/mL]	IC50 (UGT1A8) [µM]	IC50 (CYP1A2) [µM]	IC50 (UGT1A4) [µM]	IC50 (UGT1A1)	Emax at 15 min, 30 µM (UGT1A1; human, human liver microsomes, probe SN38 (0.5 µM), SN38 glucuronidation, read-out: maximum activation of SN38 glucuronidation) [%]	Cmax ([1]; after MIC vaginal capsule alone) [ng/mL]	IC50 (UGT1A8; Recombinant UGT1A8, 4-methylumbelliferone O-glucuronidation)	Emax at 45 min (UGT1A8; human, recombinant UGT1A8, probe 4-methylumbelliferone (2 µM), glucuronidation) [%]
Cc1cc(C)c(Nc2ccnc(Nc3ccc(C#N)cc3)n2)c(C)c1 [DPV, Dapivirine]	19.6	5.2	20	0.462 ± 0.288	> 30	10.5	9.45					
Clc1ccc(COC(Cn2ccnc2)c2ccc(Cl)cc2Cl)c(Cl)c1 (stereo not drawn) [MIC, miconazole]	17.1					5.11	26.5	Apparent activation with MIC	607	7.61 ± 3.13	Apparent activation with MIC	173

Reference: PMC8706783 (Pharmaceutics, 2021)
